Counter-ions that a name gives are not always drawn. Like-named read-outs stand apart in the source and are kept apart here.
Experiments:
[1] = system: human epidermoid carcinoma A431 cells, which have high expression of EGFR; experiment: EGFR cell proliferation inhibition assay (SRB, 72 hours); format: cell-based; conditions: A431 cells, 72 hours, SRB, read-out: IC50 (EGFR/A431)
Method: The activity is represented by the IC50 value. The general procedures of the assay were as follows: the cancer cells A431 highly expressing EGFR were chosen and seeded in a 96-well cell culture plate at a suitable density (e.g., 5000 cells/mL medium). The cells were then incubated in a carbon dioxide incubator until they reached 85% confluence. Then, the cell culture medium was replaced by fresh medium containing the test compounds with serial dilutions (general 6 to 7 concentrations). The cells were put back in the incubator and cultured continuously for 72 hours. The activity of the test compounds for inhibiting the cell proliferation was determined by using a Sulforhodamine B (SRB) method. IC50 values were calculated by the rate of inhibition at various concentrations of the test compounds.

[2] = system: human carcinoma SK-BR-3 cells, which have high expression of HER-2; experiment: HER-2 cell activity assay (SRB, 96 hours); format: cell-based; conditions: read-out: IC50 (HER-2/SK-BR-3)
Text: The following in vitro assay was to determine the activity of the compounds of the present invention for inhibiting the proliferation of human carcinoma SK-BR-3 cells, which have high expression of HER-2.
The following in vitro assay was to determine the activity of the test compounds for inhibiting the angiogenesis and proliferation of cancer cells, which have high expression of HER-2. The activity is represented by the IC50 value. The general procedure of the assay was as follows: the cancer cells line SK-BR-3 highly expressing HER-2 was chosen and the cells were seeded in a 96-well cell culture plate at a suitable density. The cells then were incubated in a carbon dioxide incubator until they reached 60% confluence. Then, the cell culture medium was replaced by fresh medium with the test compounds at various concentrations (6 to 7 concentrations). The cells were put back in the incubator and cultured continuously for 96 hours. The activity of the test compounds for inhibiting the cell proliferation was determined by using a Sulforhodamine B (SRB) method. IC50 values of test cells were calculated by the rate of inhibition at various concentrations of the test compounds.

HER-2 kinase = HER-2 kinase (Homo sapiens, UniProt P04626); experiment: HER-2 kinase activity assay (time-resolved fluorescence); format: biochemical; conditions: table of the HER-2 kinase activity assay; human-derived recombinant HER-2 kinase, 20 μM ATP, 25° C., 45 minutes; read-out: IC50 (HER-2/SK-BR-3)
Chain of HER-2 kinase (P04626 23-1255): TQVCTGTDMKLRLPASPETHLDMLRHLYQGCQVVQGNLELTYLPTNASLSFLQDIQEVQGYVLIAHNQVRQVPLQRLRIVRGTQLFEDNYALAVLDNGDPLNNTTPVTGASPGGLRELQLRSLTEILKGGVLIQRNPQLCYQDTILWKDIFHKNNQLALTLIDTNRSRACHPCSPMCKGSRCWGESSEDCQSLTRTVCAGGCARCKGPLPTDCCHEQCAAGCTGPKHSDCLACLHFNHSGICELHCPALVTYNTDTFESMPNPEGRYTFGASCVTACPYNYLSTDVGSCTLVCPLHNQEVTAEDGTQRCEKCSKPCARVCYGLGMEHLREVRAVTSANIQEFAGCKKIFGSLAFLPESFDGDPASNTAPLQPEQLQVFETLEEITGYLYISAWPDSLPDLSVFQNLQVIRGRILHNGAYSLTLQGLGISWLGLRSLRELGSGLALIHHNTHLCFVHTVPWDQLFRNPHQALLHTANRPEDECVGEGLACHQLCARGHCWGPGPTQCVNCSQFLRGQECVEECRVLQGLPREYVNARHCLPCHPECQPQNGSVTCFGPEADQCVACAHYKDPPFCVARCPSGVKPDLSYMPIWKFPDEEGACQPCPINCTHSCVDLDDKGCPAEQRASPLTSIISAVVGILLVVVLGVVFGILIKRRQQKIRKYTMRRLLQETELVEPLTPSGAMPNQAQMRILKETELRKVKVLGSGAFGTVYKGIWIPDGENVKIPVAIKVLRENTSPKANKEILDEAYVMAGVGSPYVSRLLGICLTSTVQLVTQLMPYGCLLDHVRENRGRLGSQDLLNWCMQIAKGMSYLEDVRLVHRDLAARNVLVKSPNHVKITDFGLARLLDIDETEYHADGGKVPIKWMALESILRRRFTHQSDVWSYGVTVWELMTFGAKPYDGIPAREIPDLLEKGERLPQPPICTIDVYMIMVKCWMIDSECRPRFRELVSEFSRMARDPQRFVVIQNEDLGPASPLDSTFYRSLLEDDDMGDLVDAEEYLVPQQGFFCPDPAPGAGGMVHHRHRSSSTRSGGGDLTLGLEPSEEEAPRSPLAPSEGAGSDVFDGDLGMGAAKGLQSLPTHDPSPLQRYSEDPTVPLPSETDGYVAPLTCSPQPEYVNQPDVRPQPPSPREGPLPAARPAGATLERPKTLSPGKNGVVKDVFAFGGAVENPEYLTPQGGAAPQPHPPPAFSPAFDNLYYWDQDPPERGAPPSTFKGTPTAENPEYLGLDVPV
Method: The in vitro HER-2 kinase activity was tested by the following assay.
The following assay was used to determine the activity of the compounds of the present invention for inhibiting HER-2 kinase. The half maximal inhibitory concentration IC50 (the concentration of the test compound showing 50% inhibition of the enzyme activity) of each compound was determined by incubating several different concentrations of the test compounds with a specific enzyme and substrate. […] The HER-2 kinase activity was determined by using a time-resolved fluorescence method.

Solubility assay [3] = format: physicochemical
Method: According to the conventional solubility measurement, the solubility of a compound of formula (I) and salts thereof was determined in three different systems: water, physiological saline and methanol.

[4] = Pharmacokinetics assay in rats (LC/MS/MS of plasma); format: in vivo, Sprague Dawley (SD) rats; conditions: both sexes, Sprague-Dawley, rat, plasma, 25 mg/kg; for AUC(0-t): read-out: AUC0-t; for MRT: read-out: MRT; for Cmax: read-out: Cmax; for Vd/F: read-out: Vz/F; for bioavailability: oral absolute bioavailability, 25 mg/kg (calculated by the base part)
Method: The rats were used as test animals. The compound of formula (I) and other salts thereof were administrated intragastrically, and a maleate salt of the compound of formula (I) was injected into the tail vein to determine the drug concentration in plasma at different time points by an LC/MS/MS method. The pharmacokinetic behavior, characteristics and the oral absolute bioavailability of the present compounds were studied and evaluated in rats. […] 28 healthy adult Sprague Dawley (SD) rats, half male and half female, were purchased from SINO-BRITSH SIPPR/BK LAB. ANIMAL LTD., CO, License number: SCXK (Shanghai) 2008-0016, and divided into 7 groups (4 rats in each group). The intravenous injection group: a suitable amount of compounds was weighed, dissolved in DMSO and diluted with normal saline to the final volume. […] healthy adult SD rats, half male and half female, were divided into 7 groups (4 rats in each group). […] For the intravenous injection group, blood samples (0.2 mL) were taken from orbital sinus before administration and at 2 min, 15 min, 30 min, 1.0 […] and 36.0 h after administration, stored in heparinized tubes and centrifuged for 10 minutes at 3,500 rpm to separate blood plasma. The plasma samples were stored at -20° C. For the intragastrical administration group, blood samples were taken before administration and at 0.5, 1.0, 2.0, 3.0, 4.0, 6.0, 8.0, 12.0, 24.0 and 36.0 hours after administration. The method to treat the samples was the same as with the intravenous injection group. The rats were fed 2 hours after administration.

Solubility assay [5] = format: physicochemical; remark: listed apart in the source

Row | Structure (SMILES) | IC50 (HER-2 kinase) [nM] | half-life ([4]; iv, vein (tail vein injection)) [h] | AUC(0-t) ([4]; iv, vein (tail vein injection)) [ng·h/mL] | MRT ([4]; iv, vein (tail vein injection)) [h] | CL/F ([4]; po, gavage) [mL/min/kg] | half-life ([4]; po, gavage) [h] | AUC(0-t) ([4]; po, gavage) [ng·h/mL] | Cmax ([4]; po, gavage) [ng/mL] | MRT ([4]; po, gavage) [h] | Vd/F ([4]; po, gavage) [L/kg] | bioavailability ([4]; po) [%] | also measured
1 | CCOc1cc2ncc(C#N)c(Nc3ccc(OCc4ccccn4)c(Cl)c3)c2cc1NC(=O)/C=C/[C@H]1CCCN1C.Cc1ccc(S(=O)(=O)O)cc1 [Example 7, (E)-N-[4-[[3-chloro-4-(2-pyridylmethoxy)phenyl]amino]-3-cyano-7-ethoxy-6-quinolyl]-3-[(2R)-1-methylpyrrolidin-2-yl]prop-2-enamide p-toluenesulfonate] | 64 | 3.12 ± 0.37 | 113000 ± 62100 | 4.2 ± 0.99 | 10.5 | 3.52 ± 0.69 | 44300 ± 16000 | 5160 ± 1640 | 7.9 ± 0.74 | 3.23 ± 1.65 | 39.2 | IC50 ([1]; p-toluenesulfonate): 38 nM; IC50 ([2]; p-toluenesulfonate): 45 nM; solubility (Solubility assay [3]; physiological saline, saline or isotonic, physiological saline, read-out: Solubility Value, Physiological saline): 100 µg/mL; solubility (Solubility assay [3]; water, read-out: Solubility Value, Water): 5390 µg/mL; solubility (Solubility assay [5]; 0.1 M hydrochloric acid, simulated gastric fluid): 31900 µg/mL
2 | CCOc1cc2ncc(C#N)c(Nc3ccc(OCc4ccccn4)c(Cl)c3)c2cc1NC(=O)/C=C/[C@H]1CCCN1C [Example 9, (E)-N-[4-[[3-chloro-4-(2-pyridylmethoxy)phenyl]amino]-3-cyano-7-ethoxy-6-quinolyl]-3-[(2R)-1-methylpyrrolidin-2-yl]prop-2-enamide dihydrochloride] | 46 | 4.75 ± 0.32 | 115000 ± 33100 | 5.54 ± 0.58 | 6.67 | 3.47 ± 0.18 | 66100 ± 17200 | 5870 ± 1610 | 7.96 ± 0.7 | 1.99 ± 0.49 | 57.6 | IC50 ([1]; dihydrochloride): 49 nM; IC50 ([2]; dihydrochloride): 69 nM; Solubility Value, Physiological saline (Solubility assay [3]; physiological saline, dihydrochloride): 0.2 mg/mL; Solubility Value, Water (Solubility assay [3]; water, dihydrochloride): 150 µg/mL; Solubility Value, 0.1M Hydrochloric acid (Solubility assay [5]; 0.1M hydrochloric acid, dihydrochloride): 16590 µg/mL
